Data on one compound can be found in PubChem BioAssay AID2454 (Broad Institute, 2010).

The assay concerns H4 cells, SNCA 5'UTR luciferase reporter translation. The experiment in a line: alpha-synuclein stem-loop translation blockers – luminescence, H4 neuroglioblastoma cells, dose confirmation, confirmation (AID 2454).

As to `COc1ccc(O)c2c(=O)c3c(OC)cc4c(c3oc12)C1C=COC1O4` (stereo unspecified), the EC50 is 569 nM.
